Reference: patent US8114904B2, “Luminescence quenchers and fluorogenic probes for detection of reactive species” (Versitech Limited & Morningside Ventures Limited, priority 2008, dated 2012)

Tested on: Murine J744.1 macrophages
Experiment: Cell assay: detection of peroxynitrite in living cells by fluorescent microscopy
Assay type: cell-based
Procedure: (§1) Murine J744.1 macrophages (ATCC, USA) were used to investigate the potential of Compound 22 (acetate form of Compound 10) for the detection of peroxynitrite in living cells. J744.1 macrophages were cultured in Dulbecco's Modified Eagle's Medium (DMEM) (Gibco) containing 10% heat-inactivated fetal bovine serum (Gibco) supplemented with 100 U/ml of penicillin and 100 μg/ml streptomycin at 37° C., 5% CO2. They were subcultured by scraping and seeded on six-well plates according to manufacture's instruction. The growth medium was changed every two to three days. Cells were grown to confluence prior to experiment. Murine J744.1 macrophages were incubated with Compound 22 (20 μM) for 1 hr and then washed three times with PBS buffer.
as §1, with “12 and 12a” for “22 (acetate form of Compound 10)”, “12 or 12a” for “22”, “buffer. […] The fluorescence was induced after treatment with LPS (lipopolysaccharide, 1 μg/ml) for 4 hrs (FIG. 9D and FIG. 10B).” for “buffer.”

## CN(c1ccc(O)cc1)c1ccc2c(c1)Oc1cc(O)ccc1C21OC(=O)c2ccccc21 (stereo not shown) [Compound 12]
20 μM probe 1 hr, LPS 1 μg/ml for 4 hrs
  fluorescence after treatment with LPS: induced
J744.1 macrophages
  subcellular localization: may selectively localize in mitochondrials
J744.1 macrophages incubated with 20 μM probe for 1 hr
  fluorescence observed in the absence of stimulants: very weak fluorescence
LPS-stimulated J744.1 macrophages, 20 μM
  colocalization with mitochondrial dye MitoTracker Red CMXRos: colocalized
